Laboratory results: ChEMBL document CHEMBL1201862, “PubChem BioAssay data set” (2004)
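Grown in 96-well plates, cells were treated for 48 hours with each compound at five concentrations. Insufficient inhibition: endpoint recorded as highest concentration tested. GI50 marks 50% less growth.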 Calls of active or inactive are those of the source. No stated cut-off is given here; in the data, active = GI50 up to about 1.1 µM and inactive = higher.

Legend:
Experiment in all cases: NCI anticancer screen, dose series, 48 h
OVCAR-5 = tested on: OVCAR-5
KM12 = tested on: KM12
SNB-75 = tested on: SNB-75
MDA-N = tested on: MDA-N
U-251 = tested on: U-251
HL-60 = tested on: HL-60
EKVX = tested on: EKVX
MDA-MB-435 = tested on: MDA-MB-435
786-0 = tested on: 786-0
SK-MEL-5 = tested on: SK-MEL-5
LOX IMVI = tested on: LOX IMVI
HCC 2998 = tested on: HCC 2998
PC-3 = tested on: PC-3
RPMI-8226 = tested on: RPMI-8226
HOP-62 = tested on: HOP-62
TK-10 = tested on: TK-10
BT-549 = tested on: BT-549
Malme-3M = tested on: Malme-3M
IGROV-1 = tested on: IGROV-1
OVCAR-3 = tested on: OVCAR-3

Row | Structure (SMILES) | GI50 (OVCAR-5) | GI50 (KM12) | GI50 (SNB-75) | GI50 (MDA-N) | GI50 (U-251) | GI50 (HL-60) | GI50 (EKVX) | GI50 (MDA-MB-435) | GI50 (786-0) | GI50 (SK-MEL-5) | GI50 (LOX IMVI) | GI50 (HCC 2998) | GI50 (PC-3) | GI50 (RPMI-8226) | GI50 (HOP-62) | GI50 (TK-10) | GI50 (BT-549) | GI50 (Malme-3M) | GI50 (IGROV-1) | GI50 (OVCAR-3)
1 | Cc1ccc(S(=O)(=O)N(CC(O)c2ccccc2)c2ccccc2F)cc1 (stereo not given) | 19.2 µM (inactive) | 16.8 µM (inactive) | 12.3 µM (inactive) | 15.7 µM (inactive) | 19.5 µM (inactive) | 1.13 µM (inactive) | 35.6 µM (inactive) | 16.2 µM (inactive) | 17.6 µM (inactive) | 15.9 µM (inactive) | 16.1 µM (inactive) | 24.2 µM (inactive) | 15.5 µM (inactive) | 17 µM (inactive) | 16.8 µM (inactive) | 19.7 µM (inactive) | 16.6 µM (inactive) | 16.4 µM (inactive) | 21.7 µM (inactive) | 11.3 µM (inactive)
2 | O=C1/C(=C/c2ccc([N+](=O)[O-])cc2)Sc2scc(-c3cccc([N+](=O)[O-])c3)[n+]21 | 8.89 µM (inactive) | 10.8 µM (inactive) | 10.6 µM (inactive) | 4.35 µM (inactive) | 10.7 µM (inactive) | 0.331 µM (active) | 6.7 µM (inactive) | 5.46 µM (inactive) | 1.79 µM (inactive) | 5.86 µM (inactive) | 2.41 µM (inactive) | 5.56 µM (inactive) | 12.5 µM (inactive) | 3.01 µM (inactive) | 15.5 µM (inactive) | 5.18 µM (inactive) | 5.36 µM (inactive) | 1.33 µM (inactive) | 2.91 µM (inactive) | 4.24 µM (inactive)
3 | CC(C)(C)c1ccc(OCC(=O)O)c(Cl)c1 | > 100 µM (inactive) | > 100 µM (inactive) | > 100 µM (inactive) | > 100 µM (inactive) | > 100 µM (inactive) | > 100 µM (inactive) | > 100 µM (inactive) | > 100 µM (inactive) | > 100 µM (inactive) | > 100 µM (inactive) | > 100 µM (inactive) | > 100 µM (inactive) | > 100 µM (inactive) | > 100 µM (inactive) | > 100 µM (inactive) | > 100 µM (inactive) | > 100 µM (inactive) | > 100 µM (inactive) | > 100 µM (inactive) | 60.4 µM (inactive)
4 | CC(C)(C)OC(=O)N1CCC2(CC1)C(=O)NCN2c1ccccc1 | > 100 µM (inactive) | > 100 µM (inactive) | > 100 µM (inactive) | > 100 µM (inactive) | > 100 µM (inactive) | 92.7 µM (inactive) | > 100 µM (inactive) | > 100 µM (inactive) | > 100 µM (inactive) | > 100 µM (inactive) | > 100 µM (inactive) | > 100 µM (inactive) | > 100 µM (inactive) | > 100 µM (inactive) | > 100 µM (inactive) | > 100 µM (inactive) | > 100 µM (inactive) | > 100 µM (inactive) | > 100 µM (inactive) | > 100 µM (inactive)
5 | O=C1C(Br)=C(Br)C(=O)c2ccc(=O)ccc21 | 50.5 µM (inactive) | 46.8 µM (inactive) | 57.9 µM (inactive) | 22.6 µM (inactive) | 38.3 µM (inactive) | 8.47 µM (inactive) | 36.6 µM (inactive) | 18.7 µM (inactive) | 18.3 µM (inactive) | 21 µM (inactive) | 20.6 µM (inactive) | > 85.1 µM (inactive) | > 56.5 µM (inactive) | 20 µM (inactive) | 60.1 µM (inactive) | 18.7 µM (inactive) | 24.2 µM (inactive) | 19.9 µM (inactive) | > 52.2 µM (inactive) | 20.8 µM (inactive)
6 | O=C(NCCCNCCCCNCCCNC(=O)C(F)(F)F)C(F)(F)F | > 100 µM (inactive) | > 100 µM (inactive) | > 100 µM (inactive) | > 100 µM (inactive) | > 100 µM (inactive) | 46.1 µM (inactive) | > 100 µM (inactive) | > 100 µM (inactive) | > 100 µM (inactive) | > 100 µM (inactive) | > 100 µM (inactive) | 76.4 µM (inactive) | > 100 µM (inactive) | > 100 µM (inactive) | > 100 µM (inactive) | > 100 µM (inactive) | > 100 µM (inactive) | > 100 µM (inactive) | > 100 µM (inactive) | > 100 µM (inactive)
7 | COc1ccc(-n2c(C)nc3ccc(NC4OC(COC(C)=O)C(OC(C)=O)C(OC(C)=O)C4OC(C)=O)cc3c2=O)cc1 (stereo not given) | > 100 µM (inactive) | > 100 µM (inactive) | > 100 µM (inactive) | 83.4 µM (inactive) | > 100 µM (inactive) | 20.3 µM (inactive) | > 100 µM (inactive) | > 100 µM (inactive) | 24.8 µM (inactive) | > 100 µM (inactive) | 28.5 µM (inactive) | > 100 µM (inactive) | > 100 µM (inactive) | 27.1 µM (inactive) | > 100 µM (inactive) | 55.1 µM (inactive) | > 100 µM (inactive) | 69.3 µM (inactive) | > 100 µM (inactive) | > 100 µM (inactive)
